The values that follow come from the supplement of paper PMC11061612.

Common to all, as to experiment: Bliss excess, mean over the matrix (fraction); higher = more synergy
The test system of one test is ACHN (Kidney Carcinoma). The gist of the method: (§1)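 After 24 hours at 37°C and 5% CO2 in 1536-well plates, cells in DMEM/F12 or RPMI plus 10% FBS received two-drug dose matrices for 72 hours. Viability came from CellTiter-Glo 2.0 luminescence and was scaled as inhibition, anchored at 0 by vehicle wells and at 1 by blank wells. Combination Emax is taken as the second-highest inhibition in the matrix, and Bliss excess as the observed combination effect less EA + EB − EA·EB, with EA and EB the single-agent effects.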

Test [1] relates to AMO-1 (Plasma Cell Myeloma). The procedure, abridged: as §1
The subject of test [2] is BT-549 (Breast Carcinoma). The procedure, abridged: as §1
Test [3] relates to C-4-I (Cervical Carcinoma). The gist of the method:
as §1

In test [4] the test system is Ca9-22 (Head and Neck Carcinoma). The procedure, abridged:
as §1

Test [5] deals with HGC-27 (Gastric Carcinoma). The gist of the method: as §1
The subject of test [6] is HOP-62 (Lung Adenocarcinoma). The procedure, abridged: as §1
Test [7] relates to KARPAS-299 (T-Cell Non-Hodgkin's Lymphoma). The gist of the method: as §1
The subject of test [8] is KYSE-450 (Esophageal Squamous Cell Carcinoma). The procedure, abridged:
as §1

The test system of test [9] is MIA-PaCa-2 (Pancreatic Carcinoma). The procedure, abridged: as §1
The test system of test [10] is MLMA (Other Blood Carcinomas). The gist of the method: as §1
Test [11] has as its system NCI-H727 (Other Solid Carcinomas). The gist of the method:
as §1

For test [12], the system named is PANC-04-03 (Pancreatic Carcinoma). The gist of the method: as §1
The test system of test [13] is RF-48 (B-Cell Non-Hodgkin's Lymphoma). The procedure, abridged: as §1
In test [14] the test system is SU8686 (Pancreatic Carcinoma). The gist of the method: as §1
Test [15] relates to SW13 (Other Solid Carcinomas). The procedure, abridged: as §1
The subject of a further test is TGW (Neuroblastoma). The procedure, abridged:
as §1

The test system of another test is UACC-62 (Melanoma). The procedure, abridged:
as §1

The subject of test [16] is VA-ES-BJ (Other Solid Carcinomas). The gist of the method: as §1
In a further test the test system is YH-13 (Glioblastoma). The procedure, abridged: as §1

On to `NC1(C(=O)N[C@@H](CCO)c2ccc(Cl)cc2)CCN(c2ncnc3[nH]ccc23)CC1` [Capivasertib] + C[C@@H]1COCCN1C2=NC(=NC(=C2)C3(CC3)[S@](=N)(=O)C)C4=C5C=CNC5=NC=C4 [AZD6738] (first compound max 10 µM, 7x7, partner max 10 µM), for which the Bliss excess in the test on ACHN (Kidney Carcinoma) is -0.0303; in [1], -0.021; in test [2], -0.0724; in test [3], 0.0234; in test [4] it was -0.0386; in test [5], -0.0182. In addition, the Bliss excess in [6] was -0.0695; in test [7] it was -0.0163; in test [8], -0.0423; in test [9], -0.04; in test [10] it was -0.0719; in test [11], -0.0734. Besides, the Bliss excess in [12] is -0.0322; in [13], -0.0888; in [14] it was -0.032; in test [15], -0.049; in the test with TGW (Neuroblastoma), -0.112; in the test on UACC-62 (Melanoma) it was 0.0231. In addition, the results for the Bliss excess (in test [16]; in the test with YH-13 (Glioblastoma)) were -0.0088 and -0.0771, respectively.
Regarding `NC1(C(=O)N[C@@H](CCO)c2ccc(Cl)cc2)CCN(c2ncnc3[nH]ccc23)CC1` [Capivasertib] + Cn1cnc2c(F)c(Nc3ccc(Br)cc3Cl)c(C(=O)NOCCO)cc21 [Selumetinib] (first compound max 10 µM, 7x7, partner max 10 µM), the Bliss excess with ACHN (Kidney Carcinoma) was 0.0379; in test [1], 0.0678; in test [2] it was 0.01; in [3], 0.0609; in test [4], -0.0383; in test [5] it was -0.0414. The Bliss excess in test [6] is -0.0367; in test [7] it was 0.117; in test [8], 0.0292; in [9] it was 0.0259; in test [10], 0.0032; in test [11], -0.0113. The Bliss excess in test [12] is 0.0247; in test [13], -0.0343; in [14], 0.0012; in [15] it was 0.102; in the test with TGW (Neuroblastoma), -0.104; in the test on UACC-62 (Melanoma), 0.0562. The Bliss excess in [16] was 0.0015; in the test on YH-13 (Glioblastoma), 0.0235.
As to `COc1cccc2c1C(=O)c1c(O)c3c(c(O)c1C2=O)C[C@@](O)(C(=O)CO)C[C@@H]3O[C@H]1C[C@H](N)[C@H](O)[C@H](C)O1` [Doxorubicin] + Cc1cc2ncnn2cc1Nc1ncc2c(n1)n(C1CCOCC1)c(=O)n2C [AZD7648] (first compound max 1 µM, 7x7, partner max 10 µM), the Bliss excess in the test on ACHN (Kidney Carcinoma) came to 0.068; in test [1], 0.0818; in test [2], 0.0233; in test [3], 0.1; in test [4], 0.0703; in [5], 0.0171. In addition, the Bliss excess in test [6] was 0.0399; in test [7], 0.1; in test [8], 0.0487; in [9], 0.0167; in [10], -0.0214; in [11], -0.0417. The Bliss excess in test [12] was -0.0394; in test [13], 0.021; in [14], -0.0262; in [15], 0.0466; in the test on TGW (Neuroblastoma), 0.0041; with UACC-62 (Melanoma), 0.0306. In addition, the Bliss excess in test [16] stood at 0.0383; with YH-13 (Glioblastoma), 0.0443.
In the case of `CS(=O)(=O)CCNCc1ccc(-c2ccc3ncnc(Nc4ccc(OCc5cccc(F)c5)c(Cl)c4)c3c2)o1` [Lapatinib] + C[C@@H](Oc1cc(-c2cnn(C3CCNCC3)c2)cnc1N)c1c(Cl)ccc(F)c1Cl [Crizotinib] (first compound max 10 µM, 7x7, partner max 10 µM), the Bliss excess was -0.0558 in the test on ACHN (Kidney Carcinoma); -0.0458 in test [1]; -0.0916 in [2]; 0.0399 in test [3]; -0.0383 in [4]; -0.0903 in test [5]. Also, the Bliss excess in test [6] is -0.0466; in test [7], 0.0532; in test [8] it was -0.0486; in test [9], -0.0517; in test [10], -0.0721; in [11], -0.0097. Further, the Bliss excess in test [12] was -0.0586; in test [13], -0.0441; in test [14], -0.0299; in test [15], -0.0291; with TGW (Neuroblastoma) it was -0.0659; with UACC-62 (Melanoma), -0.0153. In addition, the Bliss excess in [16] is 0.005; in the test with YH-13 (Glioblastoma), -0.0388.
On to `CC(=O)c1c(C)c2cnc(Nc3ccc(N4CCNCC4)cn3)nc2n(C2CCCC2)c1=O` [Palbociclib] + CC1(C)CCC(CN2CCN(c3ccc(C(=O)NS(=O)(=O)c4ccc(NCC5CCOCC5)c([N+](=O)[O-])c4)c(Oc4cnc5[nH]ccc5c4)c3)CC2)=C(c2ccc(Cl)cc2)C1 [Venetoclax] (first compound max 10 µM, 7x7, partner max 1 µM), for which the Bliss excess in the test on ACHN (Kidney Carcinoma) is 0.0329; in [1] it was -0.0284; in test [2], -0.034; in test [3], -0.0464; in test [4] it was -0.0044; in [5] it was 0.046. Besides, the Bliss excess in test [6] is -0.0132; in test [7], -0.0496; in [8] it was -0.0407; in test [9], -0.0392; in test [10] it was -0.15; in test [11], 0.0029. For the same molecule, the Bliss excess in [12] was -0.0528; in [13] it was -0.112; in [14], -0.0391; in test [15], -0.0444; in the test with TGW (Neuroblastoma), -0.014; in the test on UACC-62 (Melanoma) it was -0.0678. The Bliss excess in test [16] was found to be 0.0104; in the test with YH-13 (Glioblastoma), 0.0451.
Consider `CC(=O)c1c(C)c2cnc(Nc3ccc(N4CCNCC4)cn3)nc2n(C2CCCC2)c1=O` [Palbociclib] + Cc1c2c(nn1C)CSCc1cc(n(C)n1)CSc1cc(c3ccccc3c1)OCCCc1c(C(=O)O)n(C)c3c-2c(Cl)ccc13 [AZD5991] (first compound max 10 µM, 7x7, partner max 1 µM), for which the Bliss excess with ACHN (Kidney Carcinoma) is -0.0106; in [1], -0.0375; in test [2] it was 0.0106; in [3] it was -0.115; in [4], -0.0032; in [5] it was -0.0219. For the same molecule, the Bliss excess in test [6] is -0.0573; in test [7], 0.0262; in test [8] it was -0.0623; in [9], 0.0265; in [10], -0.0442; in test [11], 0.0353. Moreover, the Bliss excess in test [12] is -0.0464; in [13] it was -0.0722; in test [14], -0.0405; in test [15], 0.0252; with TGW (Neuroblastoma), -0.079; with UACC-62 (Melanoma), -0.0612. Moreover, the figures for the Bliss excess (in test [16]; in the test with YH-13 (Glioblastoma)) were -0.0101 and -0.003, respectively.
